The record followed here is ChEMBL document CHEMBL5143532, “Discovery of GCC5694A: A potent and selective sodium glucose co-transporter 2 inhibitor for the treatment of type 2 diabetes” (Bioorg Med Chem Lett, 2022).

Data set [1] concerns the target T1, Sodium/glucose cotransporter 1 (Homo sapiens, UniProt P13866).
T1 sequence (P13866 whole entry): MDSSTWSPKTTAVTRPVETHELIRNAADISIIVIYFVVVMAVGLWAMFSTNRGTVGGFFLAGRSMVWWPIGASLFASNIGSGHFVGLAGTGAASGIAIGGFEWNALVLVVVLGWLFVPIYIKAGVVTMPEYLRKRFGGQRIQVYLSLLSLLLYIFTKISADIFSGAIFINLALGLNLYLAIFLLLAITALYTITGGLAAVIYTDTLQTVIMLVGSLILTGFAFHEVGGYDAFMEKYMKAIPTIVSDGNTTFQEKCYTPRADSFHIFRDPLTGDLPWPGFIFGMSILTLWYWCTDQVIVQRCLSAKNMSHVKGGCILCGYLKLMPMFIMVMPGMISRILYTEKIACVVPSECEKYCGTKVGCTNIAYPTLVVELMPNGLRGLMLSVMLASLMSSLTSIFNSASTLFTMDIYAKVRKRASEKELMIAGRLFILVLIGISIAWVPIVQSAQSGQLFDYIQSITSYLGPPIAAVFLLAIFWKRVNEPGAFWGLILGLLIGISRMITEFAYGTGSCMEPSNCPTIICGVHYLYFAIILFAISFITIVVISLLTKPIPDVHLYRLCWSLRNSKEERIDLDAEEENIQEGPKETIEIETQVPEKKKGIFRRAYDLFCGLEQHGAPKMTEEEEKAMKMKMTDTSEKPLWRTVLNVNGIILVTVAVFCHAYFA
Kind of data set: Inhibition of human SGLT1 expressed in CHO cells by methyl-alpha-D-glucopyranoside assay. Type of data set: cell-based.

Data set [2] is described as follows: Selectivity index, ratio of IC50 for human SGLT1 expressed in CHO cells to IC50 for human SGLT2 expressed in CHO cells. The data set is classed as cell-based.
The nature of data set [3]: Metabolic stability in mouse by LC-MS/MS analysis. The data set is classed as ADME. As to conditions: read-out: Stability.
The test system of data set [4] is Rattus norvegicus. In words: Increase in urinary glucose excretion in oral-dosed normal Sprague-Dawley rat. The data set is classed as functional, organism-based. The settings on record: Urine, dose 0.1-1 mg/kg.
In data set [5] the test system is Rattus norvegicus. In words: Antidiabetic activity in STZ-induced rat model of type 1 diabetes assessed as decrease in hemoglobin A1c level at 0.05 to 0.5 mg/kg for 5 weeks. The data set is classed as functional, organism-based. The settings on record: dose 0.05-0.5 mg/kg.
Data set [6] deals with Rattus norvegicus. In words: Antidiabetic activity in STZ-induced rat model of type 1 diabetes assessed as decrease in blood glucose level at 0.05 to 0.5 mg/kg for 5 weeks. The data set is classed as functional, organism-based. As to conditions: dose 0.05-0.5 mg/kg.
For data set [7], the system named is Mus musculus. In words: Antidiabetic activity in type 2 diabetic db/db mouse assessed as decrease in hemoglobin A1c level at 0.05 to 0.5 mg/kg for 5 weeks. Type of data set: functional, organism-based. The settings on record: dose 0.05-0.5 mg/kg.
The test system of data set [8] is Mus musculus. Kind of data set: Antidiabetic activity in type 2 diabetic db/db mouse assessed as decrease in blood glucose level at 0.05 to 0.5 mg/kg for 5 weeks. The data set is classed as functional, organism-based. The settings on record: dose 0.05-0.5 mg/kg.
A short description of data set [9]: Cmax in Sprague-Dawley rat at 1 mg/kg, iv. As to conditions: in vivo. The data set is classed as ADME, organism-based. Also on record: dose 1 mg/kg, route iv.
Data set [10] can be described thus: AUCinfinity in Sprague-Dawley rat at 1 mg/kg, iv. As to conditions: in vivo. Type of data set: ADME, organism-based. Also on record: time infinity, dose 1 mg/kg, route iv.
Data set [11] can be described thus: Terminal elimination half life in Sprague-Dawley rat at 1 mg/kg, iv. The data set is classed as ADME, organism-based. The settings on record: in vivo, read-out: beta t1/2 (converted).
Data set [12] is described as follows: Tmax in Sprague-Dawley rat at 1 mg/kg, iv. The data set is classed as ADME, organism-based. The settings on record: in vivo.
A short description of data set [13]: Cmax in Sprague-Dawley rat at 5 mg/kg, po. The data set is classed as ADME, organism-based. Set-up: dose 5 mg/kg, route po. As to conditions: in vivo.
Data set [14] can be described thus: AUCinfinity in Sprague-Dawley rat at 5 mg/kg, po. Set-up: time infinity, dose 5 mg/kg, route po. Type of data set: ADME, organism-based. The settings on record: in vivo.
Data set [15] is described as follows: Terminal elimination half life in Sprague-Dawley rat at 5 mg/kg, po. Type of data set: ADME, organism-based. The settings on record: in vivo, read-out: beta t1/2 (converted).
Data set [16] can be described thus: Tmax in Sprague-Dawley rat at 5 mg/kg, po. Type of data set: ADME, organism-based. The settings on record: in vivo.
The nature of data set [17]: Oral bioavailability in Sprague-Dawley rat at 5 mg/kg. The data set is classed as ADME, organism-based. The settings on record: in vivo.
For data set [18], the target named is T2, Sodium/glucose cotransporter 2 (Homo sapiens, UniProt P31639).
T2 sequence (P31639 whole entry): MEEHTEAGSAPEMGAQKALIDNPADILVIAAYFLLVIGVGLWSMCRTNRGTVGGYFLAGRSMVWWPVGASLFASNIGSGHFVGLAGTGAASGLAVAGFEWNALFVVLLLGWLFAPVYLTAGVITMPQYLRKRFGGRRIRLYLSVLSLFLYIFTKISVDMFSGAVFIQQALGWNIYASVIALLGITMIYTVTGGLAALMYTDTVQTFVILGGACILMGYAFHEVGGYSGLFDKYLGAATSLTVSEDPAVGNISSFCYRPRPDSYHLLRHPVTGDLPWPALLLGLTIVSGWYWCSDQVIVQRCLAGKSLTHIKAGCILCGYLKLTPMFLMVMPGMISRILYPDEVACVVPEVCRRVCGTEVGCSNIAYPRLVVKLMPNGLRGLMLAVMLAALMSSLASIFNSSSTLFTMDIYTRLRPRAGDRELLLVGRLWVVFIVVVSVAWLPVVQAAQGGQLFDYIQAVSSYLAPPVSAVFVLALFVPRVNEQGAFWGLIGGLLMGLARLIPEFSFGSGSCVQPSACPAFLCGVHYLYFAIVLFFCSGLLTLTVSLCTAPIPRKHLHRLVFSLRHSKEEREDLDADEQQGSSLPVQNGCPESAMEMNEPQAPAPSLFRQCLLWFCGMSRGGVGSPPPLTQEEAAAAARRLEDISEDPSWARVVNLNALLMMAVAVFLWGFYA
Kind of data set: Inhibition of human SGLT2 expressed in CHO cells by methyl-alpha-D-glucopyranoside assay. Type of data set: cell-based.

The term pIC50 denotes the negative decadic logarithm of the IC50, by convention in mol/L. In general, Cmax refers to the peak of the concentration-time curve. For orientation: AUC(0-inf) means total exposure, with the tail of the curve extrapolated. Usually Tmax stands for the time at which the peak concentration occurs. Usually bioavailability stands for dose-corrected exposure relative to a reference, in per cent. Low values mean poor availability, high ones good availability.

pIC50: −log10 of the molar value. The source made the active and inactive calls. The rule behind the calls is not given here. Bounds are passed on as bounds.

`OC[C@H]1O[C@@H](c2cc(Cc3ccc(C4CC4)cc3)c(Cl)c3c2CCO3)[C@H](O)[C@@H](O)[C@@H]1O` [ENAVOGLIFLOZIN]: the negative-log IC50 (pIC50) in data set [1] is 6.44. In addition, the Ratio IC50 in data set [2] was determined as 780. The half-life in data set [3] is 103 min; in data set [11], 276 min; in data set [15], 294 min. Also, the result in data set [4], in [5], in [6], in data set [7] and in data set [8] was Active. The figures for the peak concentration (Cmax) in data set [9] and in data set [13] were 3300 ng/mL and 2340 ng/mL, respectively. For the same compound, the AUC(0-inf) in [10] came to 4180 ng·h/mL; in data set [14], 16200 ng·h/mL. Further, the Tmax in data set [12] amounted to 4.8 min; in [16], 15 min. Also, the bioavailability in data set [17] was 77.4%.

`CCc1ccc(Cc2cc([C@@H]3O[C@H](CO)[C@@H](O)[C@H](O)[C@H]3O)c3c(c2Cl)OCC3)cc1` had a pIC50 in [1] of 6.25. For the same compound, the Ratio IC50 in data set [2] turned out to be 772. For the same compound, in data set [3], the half-life stood at 44.5 min.

In the case of `CC(C)c1ccc(Cc2cc([C@@H]3O[C@H](CO)[C@@H](O)[C@H](O)[C@H]3O)c3c(c2Cl)OCC3)cc1`, the pIC50 in [1] was 5.31.

As to `Cc1ccc(Cc2cc([C@@H]3O[C@H](CO)[C@@H](O)[C@H](O)[C@H]3O)c3c(c2Cl)OCC3)cc1`, the negative-log IC50 (pIC50) in data set [18] was 8.84.

Compound `COc1ccc(Cc2cc3c(c([C@@H]4O[C@H](CO)[C@@H](O)[C@H](O)[C@H]4O)c2)CCC3)cc1` had a pIC50 in data set [18] of 8.13.

Consider `COc1ccc(Cc2cc([C@@H]3O[C@H](CO)[C@@H](O)[C@H](O)[C@H]3O)c3c(c2C)CCC3)cc1`, for which the half-life in [3] amounted to 20.3 min.

For the compound `C=Cc1ccc(Cc2cc([C@@H]3O[C@H](CO)[C@@H](O)[C@H](O)[C@H]3O)c3c(c2Cl)OCC3)cc1`, the Ratio IC50 in data set [2] was determined as 441. Moreover, the half-life in data set [3] worked out at 57 min.

With `COc1ccc(Cc2cc([C@@H]3O[C@H](CO)[C@@H](O)[C@H](O)[C@H]3O)c3c(c2Cl)CCC3)cc1`, in data set [3], the half-life stood at 30.9 min.

Consider `COc1ccc(Cc2cc([C@@H]3O[C@H](CO)[C@@H](O)[C@H](O)[C@H]3O)c3c(c2Cl)CCCO3)cc1`, for which the Ratio IC50 in [2] stood at 17. For the same compound, the half-life in data set [3] came to 37.6 min.

Regarding `COc1ccc(Cc2cc([C@@H]3O[C@H](CO)[C@@H](O)[C@H](O)[C@H]3O)c3c(c2Cl)CCO3)cc1`, the Ratio IC50 in [2] was 20. Also, in data set [3], the half-life is 42.5 min.

In [1], `OC[C@H]1O[C@@H](c2cc(Cc3ccc(C4CCCC4)cc3)c(Cl)c3c2CCO3)[C@H](O)[C@@H](O)[C@@H]1O` had a pIC50 of 5.00. Besides, the Ratio IC50 in data set [2] was 8560.

For the compound `CCCc1ccc(Cc2cc([C@@H]3O[C@H](CO)[C@@H](O)[C@H](O)[C@H]3O)c3c(c2Cl)OCC3)cc1`, in [1], the pIC50 is 5.86. Further, the Ratio IC50 in data set [2] came to 1170.

As for `CCOc1ccc(Cc2cc([C@@H]3O[C@H](CO)[C@@H](O)[C@H](O)[C@H]3O)c3c(c2Cl)OCC3)cc1`, the pIC50 in data set [1] is 5.67. Moreover, in data set [2], the Ratio IC50 came out at 1410. Also, in data set [3], the half-life worked out at 111 min.

`CCCOc1ccc(Cc2cc([C@@H]3O[C@H](CO)[C@@H](O)[C@H](O)[C@H]3O)c3c(c2Cl)OCC3)cc1` had a negative-log IC50 (pIC50) in [1] of 5.20. For the same compound, in data set [2], the Ratio IC50 is 5150.

With `COc1ccc(Cc2cc([C@@H]3O[C@H](CO)[C@@H](O)[C@H](O)[C@H]3O)c3c(c2Br)CCC3)cc1`, in data set [2], the Ratio IC50 came out at 35.

In turn, `COc1ccc(Cc2cc([C@@H]3O[C@H](CO)[C@@H](O)[C@H](O)[C@H]3O)c3c(c2Cl)OCC3)cc1` showed a negative logarithm of the IC50 (pIC50) in data set [1] of 6.40. In addition, the Ratio IC50 in [2] was 261. In addition, the half-life in [3] was more than 120 min.

Consider `CCOc1ccc(Cc2cc([C@@H]3O[C@H](CO)[C@@H](O)[C@H](O)[C@H]3O)ccc2Cl)cc1` [DAPAGLIFLOZIN], for which, in [9], the Cmax amounted to 1300 ng/mL. In addition, the total exposure AUC(0-inf) was 3010 ng·h/mL in data set [10] and 13300 ng·h/mL in data set [14]. For the same compound, the half-life in data set [11] was 174 min. For the same compound, the Tmax in [12] was determined as 4.8 min; in [16] it was 40.2 min. Also, the bioavailability in data set [17] was determined as 88.4%.
